For 18 molecules, IC50 and Activity results are on record in ChEMBL document CHEMBL1151283, “Bis(bibenzyls) from liverworts inhibit lipopolysaccharide-induced inducible NOS in RAW 264.7 cells: a study of structure-activity relationships and molecular mechanism” (J Nat Prod, 2005).

Holding throughout (assay type): functional, cell-based
Experiment [1] has as its system RAW264.7. The experiment in a line: Inhibition of LPS-induced nitric oxide production in mouse RAW264.7 cells pretreated 1 hr before LPS challenge after 24 hrs by Griess reagent method. (In general: Nitrite, measured by Griess reagent, commonly stands in for NO production.)
The test system of experiment [2] is RAW264.7. Put plainly: Inhibition of iNOS mRNA expression in mouse RAW264.7 cells […] by RT-PCR analysis.
The test system of experiment [3] is RAW264.7. The experiment in a line: Inhibition of LPS-induced iNOS mRNA expression in mouse RAW264.7 cells […] by RT-PCR analysis.

Calls of active or inactive are those of the source. The rule behind the calls is not given here.

Usually IC50 stands for the concentration that gives 50% inhibition. For `Oc1cc2cc(c1O)Oc1ccc(cc1)CCc1cccc(O)c1Oc1cccc(c1)CC2` [MARCHANTIN A], in the experiment with RAW264.7 [1], the IC50 is 1.44 µM. Further, the result with RAW264.7 [2] was inactive. Also, the Activity result in the experiment with RAW264.7 [3] was “Dose-dependent effect”.

In the case of `Oc1cccc(CCc2ccc(Oc3cc(CCc4cccc(O)c4)cc(O)c3O)cc2)c1` [PERROTETTIN F], the half-maximal inhibitory concentration (IC50) in the experiment with RAW264.7 [1] was 7.42 µM. For `COc1cc2c(cc1O)-c1ccc(O)cc1CCc1cc(O)c(O)c(c1)Oc1ccc(cc1)CC2` [PLAGIOCHIN A], in the experiment with RAW264.7 [1], the IC50 amounted to 9.07 µM. Same read-out and setting: the same measure for `Oc1ccc2c(c1)CCc1ccc(O)c(c1)-c1cc(ccc1O)/C=C\c1cccc(c1)O2` [ISOPLAGIOCHIN A]: over 100 µM; for `Oc1ccc2c(c1)CCc1ccc(cc1)Oc1cc(ccc1O)CCc1ccc-2c(O)c1` [RICCARDI C]: over 100 µM. For the molecule `COc1cc2cc(c1OC)Oc1ccc(cc1)CCc1ccc(OC)c(OC)c1Oc1cccc(c1)CC2` [MARCHANTIN B TETRAMETHYL ETHER], in the experiment with RAW264.7 [1], the IC50 was 42.5 µM.

For the molecule `COc1ccc2c(c1)CCc1ccc(cc1)Oc1cc(ccc1O)CCc1ccc-2c(O)c1` [RICCARDIN A], the concentration for half-maximal inhibition (IC50) in the experiment on RAW264.7 [1] was found to be 2.5 µM. On the same count and under the same terms, to `Oc1ccc2cc1Oc1ccc(cc1)CCc1cc(O)c(O)c(c1)Oc1cccc(c1)CC2` [MARCHANTIN H] belongs 15.3 µM.

In the case of `Oc1ccc2cc1Oc1ccc(cc1)CCc1cccc(c1)Oc1c(O)cccc1CC2` [ISOMARCHANTIN C], in the experiment with RAW264.7 [1], the IC50 is over 100 µM. On the same count and under the same terms, to `Oc1cc2cc(c1O)Oc1ccc(cc1)CCc1ccc(O)c(O)c1Oc1cccc(c1)CC2` [MARCHANTIN B] belongs 4.1 µM. Same read-out and setting: to `COc1cccc2c1Oc1cccc(c1)CCc1cc(OC)c(OC)c(c1)Oc1ccc(cc1)CC2` [MARCHANTIN A TRIMETHYL ETHER] belongs 42.5 µM; to `Oc1ccc2cc1Oc1cccc(c1)CC(O)c1cc(O)c(O)c(c1)Oc1ccc(cc1)CC2` (stereo not given) [MARCHANTIN D], 10.2 µM.

With `COc1cccc(CCc2ccc(O)c(Oc3ccc(CCc4cccc(O)c4)cc3)c2)c1`, the half-maximal inhibitory concentration (IC50) in the experiment with RAW264.7 [1] came out at 49.9 µM. For `Oc1ccc2c(c1)/C=C/c1ccc(O)c(c1)Oc1ccc(cc1)CCc1cccc(c1)O2` [PTYCHANTOL A], the IC50 with RAW264.7 [1] was over 100 µM. Still for that read-out and setting: the same measure for `COC1Cc2cccc(c2)Oc2c(O)cccc2CCc2ccc(cc2)Oc2cc1cc(O)c2O` (stereo not given) [MARCHANTIN E]: 62.2 µM; for `Oc1ccc2cc1-c1cc(ccc1O)CCc1c(ccc(O)c1O)Oc1cccc(c1)/C=C\2` [ISOPLAGIOCHIN B]: over 100 µM. In the case of `COc1ccc2cc1Oc1ccc(cc1)CCc1cc(O)ccc1-c1ccc(cc1O)CC2` [RICCARDI F], the IC50 with RAW264.7 [1] came to 5 µM.

`Oc1ccc2c(c1)CCc1ccc(O)c(c1)-c1cc(ccc1O)CCc1ccc-2c(O)c1` [ISOPLAGIOCHIN D]: in the experiment on RAW264.7 [1], the IC50 was 14.3 µM.
